Experimental findings from patent US8354388B2, “Inhibitors of MRP4 for the treatment of vascular disorders” (INSERM (Institut National de la Sante et de la Recherche …, priority 2007, dated 2013) are described below.

Entries after “also recorded” stand apart in the source; their conditions may differ. Where two headings read alike, the source gives them in different places.

For series [1], the system named is intracellular cAMP in hCASMC. As to the kind of experiment: FRET imaging of cAMP with Epac2-camps in hCASMC. Format: cell-based. The conditions noted are these: Homo sapiens, read-out: EC50, dose providing 50% of maximal cAMP formation. On the procedure: hCASMCs were transfected with scramble siRNA or the siRNA against MRP4 (each at 50 nM) in supplement-free medium over a period of 6 h, before the medium was replaced with supplement-containing medium. 24 h after the transfection, cells were infected with an adenovirus encoding the FRET-based cAMP sensor Epac2-camps. This FRET-based cAMP sensor contains a single cAMP binding domain of Epac2 fused to YFP and CFP fluorescent proteins. Upon addition of forskolin, increasing intra-cellular cAMP concentrations lead to a reversible conformational change of Epac2-camps which results in a decrease of FRET between CFP and YFP, leading to an increase in the CFP/YFP ratio^13. Imaging experiments were performed at 72 h and at room temperature. Cells were maintained in a K^+-Ringer solution containing (in mmol/L): NaCl 121.6, KCl 5.4, MgCl2 1.8; CaCl2 1.8; NaHCO3 4, NaH2PO4 0.8, D-glucose 5, sodium pyruvate 5, HEPES 10, adjusted to pH 7.4. Images were captured every 5 s using the 40× oil immersion objective of a Nikon TE 300 inverted microscope connected to a software-controlled (Metafluor, Molecular Devices, Sunnyvale, Calif., USA) cooled charge coupled (CCD) camera (Sensicam PE; PCO, Kelheim, Germany). […] Average fluorescence intensity was measured in a region of interest comprising the entire cell. […]
All quantitative data are presented as means ±SD. […]
A general note: cAMP levels reflect the balance of adenylyl cyclase and phosphodiesterase activity.

Series [2] relates to human coronary artery smooth muscle cells (hCASMC). As to the kind of experiment: BrdU incorporation proliferation assay in hCASMC. The conditions noted are these: for dose-effect on hCASMC proliferation: increasing doses; for hCASMC proliferation, relative increase compared to 0.1% S: without inhibitors 240±15.8%; for inhibitory effect on hCASMC proliferation under inhibition of PKA by Ad-PKI: infection with Ad-PKI. For orientation: Uptake of a labelled nucleoside into DNA is a usual measure of proliferation.
Experimental: Cell proliferation was measured 72 hours after plating by BrdU incorporation and expressed as relative increase compared to growth supplement starved (0.1% S) cells. […] (b) Dose-effect of MRP and PDE inhibitors (DIP: Dipyridamole, IBMX, MK571 and NBMPR) on hCASMC proliferation. n=3 experiments in triplicate. * p≦0.05, ** p≦0.01, *** p≦0.001
Human smooth muscle cells were cultured in 96-wells tissue culture plates for 3 days in Smooth Muscle Cell Basal Medium 2 supplemented with 5% S. Medium containing 0.1% S was used for the growth arrest control. Cells were incubated with pharmacological agents or siRNA for 72 h in medium containing 5% S. BrdU was added for the last 16 hours. The cell culture plates were washed, and a colorimetric BrdU cell proliferation assay was performed according to the manufacturer's instructions (Roche).

The subject of series [3] is human MRP4. Nature of the series: MRP4 silencing in hCASMC (quantitative real-time PCR, western blot). Format: cell-based. The conditions noted are these: siRNA 50 nM, 72 hours after transfection. Here is the method: Total RNA was prepared using RNeasy Mini Kit […] and 1 μg was reverse-transcribed using a standard protocol. One tenth of the resulting cDNA was amplified by 35 cycles of 30 s at 94° C., 30 s at Tm (60° C. for MRP4, MRP5 and RPL32) and 30 s at 72° C., followed by a final amplification at 72° C. for 10 min using 1 unit of BIOTAQ DNA Polymerase (Bioline) and 200 pmol each of the following primers: […]
Gene specific primers were used to amplify mRNA by qPCR on a Mx4000 apparatus (Stratagene) using the Qiagen SYBR Green master mix. The specificity of each primer set was monitored by analysis of the dissociation curve. A sample volume of 25 μl was used for each assay, which contained a 1× final concentration of SYBR green PCR master mix, 400 nM gene specific primers, and 5 μl template.
Total cell lysates were prepared according to standard protocol (Upstate Biotechnology). […] Optical Density was quantified using ImageJ software (National Institutes of Health, Bethesda, Md.). […]

In series [4] the test system is cyclic nucleotide efflux from hCASMCs. Nature of the series: cAMP and cGMP competitive enzyme immunoassay, intra-/extra-cellular ratio in hCASMC. The series is classed as cell-based, human. The settings on record: hCASMC transfected 72 h. On the procedure: Cyclic GMP and AMP were measured in cell culture supernates and in cell lysates in hCASMC transfected for 72 h either with the scramble siRNA or the MRP4 siRNA by specific competitive enzyme immunoassay as described by the manufacturer (R&D systems).

Series [5] relates to phosphorylated CREB (pCREB). Nature of the series: Phosphorylated CREB western blot in proliferating hCASMC. The series is classed as cell-based, human. The conditions noted are these: p=0.003. On the procedure:
Total cell lysates were prepared according to standard protocol (Upstate Biotechnology). Membrane proteins were isolated by scraping the cells in buffer A (5 mmol/L Tris/HCl, 250 mmol/L sucrose, and 0.1 mmol/L ethylenediaminetetraacetic acid supplemented with protease inhibitors cocktail (Sigma). The lysate was centrifuged at 10000 g for 10 min at 4° C. and the supernatant further centrifuged at 100000 g for 1 h at 4° C. The resulting pellet was resuspended in buffer A. Proteins (50 μg) were separated by SDS 12% PAGE, blotted on Hybond-C membrane (Amersham Biosciences) and incubated with various antibodies. The anti-MRP4 antibody was previously described^17. Other antibodies were: anti-MRP5 antibody (1:250; Santa-Cruz Biotechnology), anti-Caveolin1 (1:5000, Abcam), anti-cyclinD1 (1:500, BD Biosciences), anti-PP2B (calcineurin) (1:250; BD Biosciences), anti-CREB (1:1000; Upstate Biotechnology), anti-phosphorylated CREB (1:1000; Upstate Biotechnology). Immunoreactive proteins were visualized using an ECL® (enhanced chemiluminescence) detection system (Amersham Biosciences). Optical Density was quantified using ImageJ software (National Institutes of Health, Bethesda, Md.). […]
A general note: Immunoblotting shows a protein as a band on a membrane.

Series [6] relates to cAMP responsive element CRE. As to the kind of experiment: CRE-luciferase reporter gene assay in hCASMC. Format: cell-based, human. The settings on record: 5% S, percent of control. On the procedure:
Cells were co-transfected with the siRNA (50 nM) and the CRE-luciferase reporter gene plasmid (Stratagene) by electroporation using amaxa® Nucleofector technology according to manufacturer's instructions. After, a period of 6 h, the medium was replaced with supplement containing medium. Cells were grown in the presence of 5% S for 66 h. The results are means for three independent experiments performed in triplicate. The luciferase activity was measured by using “the luciferase assay kit” (Promega). It was expressed as percent of control in relative luciferase units.

The test system of series [7] is hCASMC. As to the kind of experiment: TUNEL staining for apoptosis in hCASMC. Format: cell-based, human. The conditions noted are these: siRNA transfected 72 h. Here is the method: MRP4 or scramble siRNA were transfected in hCASMC for 72 h and the apoptosis was analyzed by TUNEL staining (ApopTag Red, Serologicals Corp). For the positive control, cells were treated with staurosporin (10 μM) for 1 h.

Series [8] relates to human pulmonary artery smooth muscle cells (hPASMC). Nature of the series: BrdU incorporation proliferation assay in hPASMC. The series is classed as cell-based. The text has this: FIG. 10. Inhibition of hPASMC (human pulmonary artery smooth musclulare cells) proliferation with MRP4 siRNA.
[9] abbreviates: 5% S, 72 h, maximal dose used (MK571 37.5 μM, NBMPR 100 μM).

As usually defined, the EC50 is the midpoint of the concentration-response curve. For the compound `C=C[C@@]1(C)CC(=O)[C@]2(O)[C@@]3(C)[C@@H](O)CCC(C)(C)[C@@H]3[C@H](O)[C@H](OC(C)=O)[C@@]2(C)O1` [forskolin], the EC50 in series [1] (MRP4 siRNA transfected hCASMC) is 3 ± 0.6 µM; in series [1] (scramble siRNA transfected hCASMC) it was 13.3 ± 2.2 µM.

As to `O=[N+]([O-])c1ccc(CSc2ncnc3c2ncn3[C@@H]2O[C@H](CO)[C@@H](O)[C@H]2O)cc1` [NBMPR], the “dose-effect on hCASMC proliferation” value in series [2] (5% S, 72 h) was “dose-dependent inhibition”. For the same compound, in series [2] (setting [9]), the “hCASMC proliferation, relative increase compared to 0.1% S” value turned out to be 140±15%. In series [2] (MK571 37.5 μM, NMBPR 100 μM), the “inhibitory effect on hCASMC proliferation under inhibition of PKA by Ad-PKI” value (“inhibitory effect … by Ad-PKI” below) is recorded as “also reversed”.

For the compound `CC(C)Cn1c(=O)n(C)c(=O)c2[nH]cnc21` [IBMX], in series [2] (5% S, 72 h, IBMX 100 μM), the “hCASMC proliferation, relative increase compared to 0.1% S” value came out at 170±12%. For the same compound, in series [2] (5% S, 72 h), the “dose-effect on hCASMC proliferation” value was “dose-dependent inhibition”.

As to “MRP4 siRNA: siRNA against human MRP4, sense 5′-CAGUGUUCUUACACUUCCUTT-3′ (SEQ ID NO:7), anti-sense 5′-AGGAAGUGUAAGAACACUGTT-3′ (SEQ ID NO:8) (chemistry not given here)”, the “decrease in MRP4 mRNA compared to scramble siRNA” value in series [3] is 75±1%. In addition, the “decrease in MRP4 protein level compared to scramble siRNA” value in series [3] (western blot) amounted to 74±6.8%. In series [4], the “cAMP intra-cellular/extra-cellular ratio compared to scramble siRNA” value is 289±12.5% and the “cGMP intra-cellular/extra-cellular ratio compared to scramble siRNA” value is given as 230±5.5%. For the same compound, the “increase in level of pCREB compared to scramble siRNA” value in series [5] amounted to 329±15%. Moreover, the “CRE-luciferase activity compared to scramble siRNA” value in series [6] came out at 553±25%. Also, the “apoptosis in hCASMC” value in series [7] is “not associated with apoptosis”. Moreover, the “hPASMC proliferation compared to scrambled siRNA” value in series [8] is on record as “significant decrease; also recorded: inhibits”. The “inhibitory effect on hCASMC proliferation under inhibition of PKG by KT5823” value in series [2] (KT5823, MK571 37.5 μM, NMBPR 100 μM) is given as “not by the inhibition of cGMP-dependent protein kinase G”. For the same compound, the “inhibitory effect … by Ad-PKI” value in series [2] (MK571 37.5 μM, NMBPR 100 μM) is recorded as “completely reversed”. For the same compound, the “supplement mix-induced hCASMC proliferation, relative increase compared to 0.1% S” value in series [2] (siRNA 50 nM, 72 h, 5% S, scramble siRNA 313±35%) was 183±27%.

For the compound `OCCN(CCO)c1nc(N2CCCCC2)c2nc(N(CCO)CCO)nc(N3CCCCC3)c2n1` [dipyridamole], in series [2] (5% S, 72 h), the “reduction of hCASMC proliferation compared to MK571 or NBMPR” value is “no significant difference” and the “dose-effect on hCASMC proliferation” value is reported as “dose-dependent inhibition”.

Regarding `CN(C)C(=O)CCSC(SCCC(=O)O)c1cccc(/C=C/c2ccc3ccc(Cl)cc3n2)c1` (centres unmarked) [MK571], in series [2] (5% S, 72 h), the “dose-effect on hCASMC proliferation” value is listed as “dose-dependent inhibition”. For the same compound, the “hCASMC proliferation, relative increase compared to 0.1% S” value in series [2] (setting [9]) is 153±11%. In series [2] (MK571 37.5 μM, NMBPR 100 μM), the “inhibitory effect … by Ad-PKI” value is listed as “also reversed”.
